ChEMBL document CHEMBL2069260, “Synthesis and evaluation of novel 2-pyridone derivatives as inhibitors of phosphodiesterase3 (PDE3): a target for heart failure and platelet aggregation” (Bioorg Med Chem Lett, 2012)

Tests used:
Assay type in all cases: protein assay
[1] = target: T1, Phosphodiesterase 3 (Homo sapiens, UniProt Q14432+Q13370); test: Inhibition of PDE3 at 500 uM by Biomol Green quantizyme assay system
[2] = target: T1, Phosphodiesterase 3; test: Inhibition of PDE3 by Biomol Green quantizyme assay system
[3] = target: T1, Phosphodiesterase 3; test: Inhibition of PDE3 at 100 nmol by Biomol Green quantizyme assay system
[4] = target: T1, Phosphodiesterase 3; test: Inhibition of PDE3 at 1 nM by Biomol Green quantizyme assay system
[5] = target: T1, Phosphodiesterase 3; test: Inhibition of PDE3 at 10 uM by Biomol Green quantizyme assay system

Row | inhibition [1] | IC50 [2] | inhibition [3] | inhibition [4] | inhibition [5] | SMILES
1 | 80.4% | 423.2 µM | 7.69% | 0% | – | Cc1[nH]c(=O)c(Cc2ccccc2Cl)cc1C#N
2 | 85.8% | 2.66 µM | 36.9% | – | 87.7% | COC(=O)c1cc(Cc2ccccc2Cl)c(=O)[nH]c1C
3 | 90.6% | – | – | – | 91.7% | Cc1[nH]c(=O)c(C#N)cc1-c1ccncc1
4 | 83% | 7.3 µM | – | 33.9% | 55.4% | CCOC(=O)c1cc(Cc2ccccc2)c(=O)[nH]c1-c1ccccc1
5 | 76.7% | 163.5 µM | 36.9% | 21.5% | – | COC(=O)c1cc(Cc2ccccc2)c(=O)[nH]c1C
6 | 42.2% | – | – | – | – | CCOC(=O)c1cc(Cc2ccc(C)cc2)c(=O)[nH]c1-c1ccccc1
7 | 84.6% | 128.3 µM | 38.5% | 35.4% | – | Cc1[nH]c(=O)c(Cc2ccccc2)cc1C#N
8 | 79.5% | 280.7 µM | – | 0% | 23.1% | Cc1[nH]c(=O)c(Cc2ccc(Cl)cc2Cl)cc1C#N
9 | 53.9% | – | – | – | – | CCOC(=O)c1cc(Cc2ccccc2Cl)c(=O)[nH]c1C
10 | 42.9% | – | – | – | – | CCOC(=O)c1cc(Cc2ccccc2)c(=O)[nH]c1C
11 | 41.2% | – | – | – | – | Cc1[nH]c(=O)c(Cc2ccc(Cl)cc2)cc1C#N
12 | 80.1% | 172.5 µM | – | 0% | 35.4% | CCOC(=O)c1cc(Cc2ccc(C)cc2)c(=O)[nH]c1C
13 | 83.2% | 7.49 µM | 30.8% | – | 56.9% | CCOC(=O)c1cc(Cc2cccc(Cl)c2)c(=O)[nH]c1C
14 | 17.3% | – | – | – | – | Cc1[nH]c(=O)c(Cc2ccc(Br)cc2)cc1C#N
15 | 79.1% | 38.5 µM | 47.7% | 44.6% | – | CCOC(=O)c1cc(Cc2ccc(Br)cc2)c(=O)[nH]c1C
16 | 4.3% | – | – | – | – | N#Cc1cc(Cc2ccc(Br)cc2)c(=O)[nH]c1-c1ccccc1
17 | 78.2% | 125.1 µM | 40% | 6.15% | – | CCCc1cc(C(=O)OCC)c(C)[nH]c1=O
18 | 74.1% | 8.47 µM | 21.5% | – | 55.4% | CCOC(=O)c1cc(Cc2ccc(Br)cc2)c(=O)[nH]c1-c1ccccc1
19 | 78.3% | 172.13 µM | 30.8% | – | 35.4% | CCOC(=O)c1cc(Cc2ccc(Cl)cc2Cl)c(=O)[nH]c1C
20 | 80.9% | 312.4 µM | – | 0% | 20% | CCOC(=O)c1cc(Cc2cccc(Cl)c2)c(=O)[nH]c1-c1ccccc1
21 | 1.1% | – | – | – | – | CCOC(=O)c1cc(Cc2ccc(Cl)cc2)c(=O)[nH]c1-c1ccccc1
22 | 85.9% | 1.68 µM | – | 34% | 72.4% | Cc1ccc(Cc2cc(C#N)c(C)[nH]c2=O)cc1
23 | 43% | – | – | – | – | CCOC(=O)c1cc(Cc2ccc(Cl)cc2)c(=O)[nH]c1C
24 | 22.5% | – | – | – | – | N#Cc1cc(Cc2ccccc2)c(=O)[nH]c1-c1ccccc1
